Test results from ChEMBL document CHEMBL4665793, “Screening and Reverse-Engineering of Estrogen Receptor Ligands as Potent Pan-Filovirus Inhibitors” (J Med Chem, 2020).
Calls of active or inactive are those of the source. The calls are words filed in the database; no cut-off is given here.

Experiments:
in vitro [1] = conditions: human, A549 cells
in vitro [2] = conditions: human, A549 cells; remark: listed apart in the source
Zaire ebolavirus = assay: microbe, parasite or virus in culture; conditions: Mayinga, Zaire, 1976, A549, 48 h
Marburgvirus [3] = assay: microbe, parasite or virus in culture; conditions: Orthomarburgvirus, Musoke, A549, 48 h
Marburgvirus [4] = assay type: functional, organism-based; conditions: Orthomarburgvirus, Angola, A549, 24 h
[5] = test system: Vesicular stomatitis virus; assay: Antiviral activity against vesicular stomatitis virus assessed as inhibition of viral entry; assay type: functional, organism-based
Influenza A virus = assay: Antiviral activity against Influenza A virus H5N1 assessed as inhibition of viral entry; assay type: functional, organism-based
Ebolavirus [6] = assay: Antiviral activity against Ebolavirus (pBDBV) assessed as inhibition of viral entry; assay type: functional, organism-based
Mengla dianlovirus = assay: Antiviral activity against Mengla-virus assessed as inhibition of viral entry; assay type: functional
Ebolavirus [7] = assay: Antiviral activity against Ebolavirus Tai Forest assessed as inhibition of viral entry; assay type: functional, organism-based
Ebolavirus [8] = assay: Antiviral activity against Ebolavirus (pRESTV) assessed as inhibition of viral entry; assay type: functional, organism-based
[9] = biological target: T1, Estrogen receptor (Homo sapiens) (UniProt P03372); assay: Agonist activity at ER-alpha in human MCF-7:WS8 cells transfected with an estrogen response element incubated for 18 hrs by luciferase reporter gene assay; assay type: cell-based; conditions: MCF7
T1 sequence (whole entry): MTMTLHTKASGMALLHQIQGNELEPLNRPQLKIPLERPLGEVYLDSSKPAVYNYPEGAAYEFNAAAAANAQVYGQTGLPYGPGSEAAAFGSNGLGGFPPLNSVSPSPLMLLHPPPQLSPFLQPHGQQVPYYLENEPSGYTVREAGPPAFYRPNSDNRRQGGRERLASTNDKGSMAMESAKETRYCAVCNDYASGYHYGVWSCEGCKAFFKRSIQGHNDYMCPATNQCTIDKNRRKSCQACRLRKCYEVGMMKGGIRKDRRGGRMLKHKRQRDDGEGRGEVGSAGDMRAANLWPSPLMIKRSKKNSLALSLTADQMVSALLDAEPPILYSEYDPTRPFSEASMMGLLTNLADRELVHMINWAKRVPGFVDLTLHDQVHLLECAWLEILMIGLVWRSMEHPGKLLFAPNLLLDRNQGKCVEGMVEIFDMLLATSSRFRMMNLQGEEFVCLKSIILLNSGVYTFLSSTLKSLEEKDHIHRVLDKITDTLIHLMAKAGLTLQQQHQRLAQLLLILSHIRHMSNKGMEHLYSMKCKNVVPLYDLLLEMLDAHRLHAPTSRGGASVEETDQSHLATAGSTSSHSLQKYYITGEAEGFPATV

[10] = biological target: T1, Estrogen receptor (Homo sapiens); assay: Antagonist activity at ER-alpha in human MCF-7:WS8 cells transfected with an estrogen response element assessed as suppression of estrogen-induced response incubated for 18 hrs by luciferase reporter gene assay; assay type: cell-based; conditions: MCF7
A549 = assay type: cell-based; conditions: human

| Compound | selectivity ratio (in vitro [1]) | selectivity ratio (in vitro [2]) | IC50 (Zaire ebolavirus) | IC50 (Marburgvirus [3]) | IC50 (Marburgvirus [4]) | inhibition [5] | inhibition (Influenza A virus) | inhibition (Ebolavirus [6]) | inhibition (Mengla dianlovirus) | inhibition (Ebolavirus [7]) | inhibition (Ebolavirus [8]) | Activity [9] | inhibition [10] | CC50 (A549) |
| --- | --- | --- | --- | --- | --- | --- | --- | --- | --- | --- | --- | --- | --- | --- |
| COc1ccc(-c2sc3cc(OC)ccc3c2Oc2ccc(OCCN3CCC(CCNC(=O)CCCCNC(=O)OC(C)(C)C)CC3)cc2)cc1 | 76 | 57 | 800 nM | 600 nM |  |  |  |  |  |  |  |  |  |  |
| CC/C(=C(/c1ccc(NCCN2CCOCC2)cc1)c1ccc(OCCN2CCOCC2)cc1)c1ccccc1 | < 2 | 111 | 230 nM | 2180 nM | 2900 nM |  |  |  |  |  |  |  |  |  |
| COc1ccc2c(Oc3ccc(OCCN4CCCCC4)cc3)c(-c3ccc(Br)cc3)sc2c1 | 37 | 74 | 630 nM | 1250 nM |  |  |  |  |  |  |  |  |  |  |
| CC/C(=C(/c1ccc(NC(=O)N2CCN(C)CC2)cc1)c1ccc(OCCN2CCCC2)cc1)c1ccccc1 | 11 | 740 | 30 nM | 750 nM | 1060 nM |  |  |  |  |  |  |  |  |  |
| Oc1ccc2c(Oc3ccc(OCCN4CCCCC4)cc3)c(-c3ccccc3)sc2c1 | 20 | 45 | 300 nM | 670 nM | > 6250 nM |  |  |  |  |  |  |  |  |  |
| CC/C(=C(/c1ccc(NC(=O)CC2CCN(C)CC2)cc1)c1ccc(OCCN2CCCC2)cc1)c1ccccc1 | 33 | 1400 | 6 nM | 620 nM | 870 nM |  |  |  |  |  |  |  |  |  |
| Oc1ccc2c(Oc3ccc(OCCN4CCCCC4)cc3)c(-c3ccc(F)cc3)sc2c1 | 7 | 15 | 980 nM | 2040 nM |  |  |  |  |  |  |  |  |  |  |
| COc1ccc2c(Oc3ccc(OCCN4CCCCC4)cc3)c(-c3ccccc3)sc2c1 | 8 | 88 | 260 nM | 3180 nM | > 6250 nM |  |  |  |  |  |  |  |  |  |
| COc1ccc2c(Oc3ccc(OCCN4CCCCC4)cc3)c(-c3ccc(Br)cc3)[s+]([O-])c2c1 (stereo not drawn) | > 55 | > 47 | 2140 nM | 1810 nM |  |  |  |  |  |  |  |  |  |  |
| CC/C(=C(/c1ccc(NC(=O)CN2CCOCC2)cc1)c1ccc(OCCN2CCOCC2)cc1)c1ccccc1 | 13 | 40 | 740 nM | 4230 nM | 3240 nM |  |  |  |  |  |  |  |  |  |
| Cc1c(-c2ccc(O)cc2)nn(-c2ccc(O)cc2)c1-c1ccc(OCCN2CCCCC2)cc1 | 12 | 11 | 1310 nM | 1190 nM |  |  |  |  |  |  |  |  |  |  |
| CC/C(=C(/c1ccc(NC(=O)CN2CCN(C)CC2)cc1)c1ccc(OCCN2CCCC2)cc1)c1ccccc1 | 7 | 1400 | 10 nM | 420 nM | 360 nM |  |  |  |  |  |  |  |  |  |
| CC/C(=C(/c1ccc(NC(=O)C2CCN(C3CCN(C)CC3)CC2)cc1)c1ccc(OCCN2CCCC2)cc1)c1ccccc1 | 16 | 79 | 180 nM | 2050 nM | 1070 nM |  |  |  |  |  |  |  |  |  |
| CC/C(=C(/c1ccc(NC(=O)C2CCN(C)CC2)cc1)c1ccc(OCCN2CCCC2)cc1)c1ccccc1 | 12 | 590 | 10 nM | 540 nM | 640 nM | inactive | inactive | Active | Active | Active | Active | inactive | inactive |  |
| CC/C(=C(/c1ccc(NC(=O)CN2CCOCC2)cc1)c1ccc(OCCN2CCCC2)cc1)c1ccccc1 | 14 | 47 | 350 nM | 1210 nM | 2800 nM |  |  |  |  |  |  |  |  |  |
| CCNCCc1ccc(CN(CC)c2cc(OC)ccc2[C@@H]2CCc3cc(O)ccc3C2)cc1 [ELACESTRANT] | 8 | 44 | 240 nM | 1300 nM |  |  |  |  |  |  |  |  |  |  |
| CC/C(=C(/c1ccc(NC(=O)C2CCN(C)C2)cc1)c1ccc(OCCN2CCCC2)cc1)c1ccccc1 (stereo not drawn) | 30 | 590 | 20 nM | 720 nM | 960 nM | inactive | inactive | Active | Active | Active | Active | inactive | inactive | 11800 nM |
| OCCOc1ccc(/C(=C(/CCCl)c2ccccc2)c2ccccc2)cc1 [OSPEMIFENE] | < 1 | 7 | 3800 nM | 34400 nM |  |  |  |  |  |  |  |  |  |  |
| Cc1c(-c2ccc(O)cc2)n(Cc2ccc(OCCN3CCCCCC3)cc2)c2ccc(O)cc12 [BAZEDOXIFENE] | 6 | 10 | 2240 nM | 3830 nM |  |  |  |  |  |  |  |  |  |  |
| CC/C(=C(/c1ccc(NCCN2CCCC2)cc1)c1ccc(OCCN2CCCC2)cc1)c1ccccc1 | 18 | 79 | 330 nM | > 12500 nM | > 25000 nM |  |  |  |  |  |  |  |  |  |
| COc1ccc2c(c1)CCC(c1ccccc1)=C2c1ccc(OCCN2CCCC2)cc1 [NAFOXIDINE] | 6 | 82 | 100 nM | 1300 nM | > 6250 nM |  |  |  |  |  |  |  |  |  |
| Cc1cc(F)cc(C)c1C(=O)c1sc2cc(O)ccc2c1Oc1ccc(OCCN2CC(CF)C2)cc1 | 15 | 21 | 1320 nM | 1870 nM |  |  |  |  |  |  |  |  |  |  |
| CC/C(=C(/c1ccc(N)cc1)c1ccc(OCCN2CCCC2)cc1)c1ccccc1 | 13 | 147 | 130 nM | 1070 nM | 1780 nM |  |  |  |  |  |  |  |  |  |
| CC1=C(c2ccc(O)cc2)[C@H](c2ccc(OCCN3CCCCC3)cc2)Oc2ccccc21 | 19 | 11 | 1500 nM | 900 nM |  |  |  |  |  |  |  |  |  |  |
| Nc1ccc(-c2sc3cc(O)ccc3c2Oc2ccc(OCCN3CCCCC3)cc2)cc1 | > 69 | > 770 | 130 nM | 1450 nM | > 6250 nM |  |  |  |  |  |  | inactive |  |  |
| CN(C)CCOc1ccc(/C(=C(/CCCl)c2ccccc2)c2ccccc2)cc1 [TOREMIFENE] | 6 | 229 | 70 nM | 2600 nM | 3900 nM |  |  | Active | Active | Active | Active |  |  |  |
| CCC(c1ccccc1)C(O)(c1ccc(OCCN(C)C)cc1)c1cccc(O)c1 (stereo not drawn) | 9 | 22 | 1740 nM | 4400 nM |  |  |  |  |  |  |  |  |  |  |
| Cc1ccccc1C(=O)c1sc2cc(O)ccc2c1Oc1ccc(OCCN2CC(CF)C2)cc1 | 7 | 27 | 1020 nM | 3880 nM | > 6250 nM |  |  |  |  |  |  |  |  |  |
| CCC(=C(c1ccc(OCCN2CCCC2)cc1)c1ccc(OCCN2CCCC2)cc1)c1ccccc1 | 13 | 405 | 20 nM | 610 nM | 1560 nM |  |  |  |  |  |  | inactive |  | 8100 nM |
